How the values were obtained:
Assay in all cases: KINOMEscan competition binding
Conditions in all cases: compound 10.0 µM
[1] = molecular target: TNIK (human) (UniProt Q9UKE5)
[2] = molecular target: MAP4K5 (human) (UniProt Q9Y4K4)
[3] = molecular target: MAPKAPK5 (human) (UniProt Q8IW41)
[4] = molecular target: PIP4K2B (human) (UniProt P78356)
[5] = molecular target: PRKCD (human) (UniProt Q05655)
[6] = molecular target: CaMK1 (human) (UniProt Q14012)
[7] = molecular target: CAMKK2 (human) (UniProt Q96RR4)
CAMKK2 (human), sequence (Q96RR4 whole entry, looked up): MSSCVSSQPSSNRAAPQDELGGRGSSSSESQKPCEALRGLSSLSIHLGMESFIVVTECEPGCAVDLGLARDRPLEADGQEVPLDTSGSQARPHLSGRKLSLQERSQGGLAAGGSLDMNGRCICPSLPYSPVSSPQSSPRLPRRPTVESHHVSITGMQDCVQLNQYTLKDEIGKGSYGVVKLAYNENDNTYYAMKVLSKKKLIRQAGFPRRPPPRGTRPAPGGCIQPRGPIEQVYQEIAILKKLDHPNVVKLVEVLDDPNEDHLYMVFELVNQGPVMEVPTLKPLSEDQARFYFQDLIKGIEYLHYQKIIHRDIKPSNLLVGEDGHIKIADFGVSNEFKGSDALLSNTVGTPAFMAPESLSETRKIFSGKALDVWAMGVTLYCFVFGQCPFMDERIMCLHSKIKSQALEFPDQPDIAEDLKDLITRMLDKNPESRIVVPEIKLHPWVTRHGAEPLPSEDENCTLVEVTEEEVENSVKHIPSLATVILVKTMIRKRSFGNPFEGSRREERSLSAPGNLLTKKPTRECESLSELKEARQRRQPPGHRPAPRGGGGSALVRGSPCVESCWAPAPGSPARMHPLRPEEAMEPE

[8] = molecular target: CLK2 (human) (UniProt P49760)
CLK2 (human), sequence (P49760 whole entry, looked up): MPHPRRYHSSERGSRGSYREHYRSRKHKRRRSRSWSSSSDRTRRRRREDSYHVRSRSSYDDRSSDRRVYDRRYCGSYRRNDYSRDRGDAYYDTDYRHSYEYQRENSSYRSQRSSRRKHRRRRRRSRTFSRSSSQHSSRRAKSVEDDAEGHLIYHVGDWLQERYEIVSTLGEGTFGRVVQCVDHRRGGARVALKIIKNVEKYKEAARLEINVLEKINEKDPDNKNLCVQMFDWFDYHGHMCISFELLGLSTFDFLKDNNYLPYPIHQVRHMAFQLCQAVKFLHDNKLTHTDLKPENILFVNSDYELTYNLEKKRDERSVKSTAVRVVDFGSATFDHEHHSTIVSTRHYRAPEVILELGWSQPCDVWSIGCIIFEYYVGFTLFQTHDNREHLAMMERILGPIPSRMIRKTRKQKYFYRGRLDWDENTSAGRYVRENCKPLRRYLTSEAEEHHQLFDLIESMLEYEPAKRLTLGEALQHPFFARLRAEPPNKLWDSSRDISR

[9] = molecular target: HCK (human) (UniProt P08631)
HCK (human), sequence (P08631 whole entry, looked up): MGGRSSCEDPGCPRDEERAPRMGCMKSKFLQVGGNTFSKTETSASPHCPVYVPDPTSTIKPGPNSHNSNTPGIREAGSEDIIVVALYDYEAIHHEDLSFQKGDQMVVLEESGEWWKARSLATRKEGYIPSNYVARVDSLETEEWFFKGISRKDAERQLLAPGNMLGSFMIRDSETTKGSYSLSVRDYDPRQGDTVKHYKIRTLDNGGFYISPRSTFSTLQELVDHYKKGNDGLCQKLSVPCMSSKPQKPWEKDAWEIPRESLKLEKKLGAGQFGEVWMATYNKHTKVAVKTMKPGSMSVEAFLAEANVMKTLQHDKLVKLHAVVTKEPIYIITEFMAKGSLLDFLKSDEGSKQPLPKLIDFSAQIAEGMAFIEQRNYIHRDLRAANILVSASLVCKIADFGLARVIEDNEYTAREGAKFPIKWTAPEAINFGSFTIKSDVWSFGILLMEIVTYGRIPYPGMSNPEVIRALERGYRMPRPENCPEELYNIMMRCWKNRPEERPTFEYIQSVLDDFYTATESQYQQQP

[10] = molecular target: LATS2 (human) (UniProt Q9NRM7)
[11] = molecular target: PTK6 (human) (UniProt Q13882)
[12] = molecular target: FGFR2 (human) (UniProt P21802)
FGFR2 (human), sequence (P21802 whole entry, looked up): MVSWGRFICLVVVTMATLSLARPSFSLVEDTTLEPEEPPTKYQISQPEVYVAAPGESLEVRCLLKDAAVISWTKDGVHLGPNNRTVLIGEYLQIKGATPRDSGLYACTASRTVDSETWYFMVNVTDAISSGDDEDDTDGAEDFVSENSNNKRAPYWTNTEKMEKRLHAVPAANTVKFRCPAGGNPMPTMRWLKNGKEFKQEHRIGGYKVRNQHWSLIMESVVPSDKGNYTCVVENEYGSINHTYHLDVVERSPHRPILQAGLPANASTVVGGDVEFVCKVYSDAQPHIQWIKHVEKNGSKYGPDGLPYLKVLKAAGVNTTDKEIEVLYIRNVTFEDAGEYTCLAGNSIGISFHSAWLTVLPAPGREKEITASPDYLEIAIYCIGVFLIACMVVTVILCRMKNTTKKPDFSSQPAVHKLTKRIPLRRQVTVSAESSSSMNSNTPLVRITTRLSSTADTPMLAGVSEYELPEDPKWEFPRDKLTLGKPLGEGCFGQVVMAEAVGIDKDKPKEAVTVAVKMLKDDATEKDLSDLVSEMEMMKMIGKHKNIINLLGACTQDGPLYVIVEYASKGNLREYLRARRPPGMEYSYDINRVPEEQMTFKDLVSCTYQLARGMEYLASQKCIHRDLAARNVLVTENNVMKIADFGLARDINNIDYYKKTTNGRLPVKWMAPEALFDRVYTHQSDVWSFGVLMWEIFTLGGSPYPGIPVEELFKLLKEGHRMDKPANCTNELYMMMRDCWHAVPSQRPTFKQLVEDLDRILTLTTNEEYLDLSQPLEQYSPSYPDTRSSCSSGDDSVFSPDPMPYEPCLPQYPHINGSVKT

[13] = molecular target: CIT (human) (UniProt O14578)
[14] = molecular target: DCLK1 (human) (UniProt O15075)
[15] = molecular target: PIP5K1A (human) (UniProt Q99755)
[16] = molecular target: TGFBR1 (human) (UniProt P36897)
TGFBR1 (human), sequence (P36897 whole entry, looked up): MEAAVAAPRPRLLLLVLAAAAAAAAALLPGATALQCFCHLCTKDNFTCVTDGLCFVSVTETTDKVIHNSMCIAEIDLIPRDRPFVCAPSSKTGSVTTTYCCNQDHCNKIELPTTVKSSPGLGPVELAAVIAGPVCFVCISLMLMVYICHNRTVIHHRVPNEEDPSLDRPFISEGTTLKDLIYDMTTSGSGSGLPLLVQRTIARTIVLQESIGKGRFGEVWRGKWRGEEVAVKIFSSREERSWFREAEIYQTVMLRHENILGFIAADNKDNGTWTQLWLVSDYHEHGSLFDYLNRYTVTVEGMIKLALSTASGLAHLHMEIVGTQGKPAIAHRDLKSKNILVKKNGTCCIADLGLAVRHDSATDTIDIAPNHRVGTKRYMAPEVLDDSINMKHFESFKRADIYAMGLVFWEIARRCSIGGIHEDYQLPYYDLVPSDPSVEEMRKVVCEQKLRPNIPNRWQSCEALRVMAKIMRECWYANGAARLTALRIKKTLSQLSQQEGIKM

[17] = tested on: EGFR (human), P00533 [L858R]
[18] = molecular target: SLK (human) (UniProt Q9H2G2)
[19] = molecular target: CLK3 (human) (UniProt P49761)
[20] = molecular target: STK38L (human) (UniProt Q9Y2H1)
[21] = molecular target: CAMK2B (human) (UniProt Q13554)
CAMK2B (human), sequence (Q13554 whole entry, looked up): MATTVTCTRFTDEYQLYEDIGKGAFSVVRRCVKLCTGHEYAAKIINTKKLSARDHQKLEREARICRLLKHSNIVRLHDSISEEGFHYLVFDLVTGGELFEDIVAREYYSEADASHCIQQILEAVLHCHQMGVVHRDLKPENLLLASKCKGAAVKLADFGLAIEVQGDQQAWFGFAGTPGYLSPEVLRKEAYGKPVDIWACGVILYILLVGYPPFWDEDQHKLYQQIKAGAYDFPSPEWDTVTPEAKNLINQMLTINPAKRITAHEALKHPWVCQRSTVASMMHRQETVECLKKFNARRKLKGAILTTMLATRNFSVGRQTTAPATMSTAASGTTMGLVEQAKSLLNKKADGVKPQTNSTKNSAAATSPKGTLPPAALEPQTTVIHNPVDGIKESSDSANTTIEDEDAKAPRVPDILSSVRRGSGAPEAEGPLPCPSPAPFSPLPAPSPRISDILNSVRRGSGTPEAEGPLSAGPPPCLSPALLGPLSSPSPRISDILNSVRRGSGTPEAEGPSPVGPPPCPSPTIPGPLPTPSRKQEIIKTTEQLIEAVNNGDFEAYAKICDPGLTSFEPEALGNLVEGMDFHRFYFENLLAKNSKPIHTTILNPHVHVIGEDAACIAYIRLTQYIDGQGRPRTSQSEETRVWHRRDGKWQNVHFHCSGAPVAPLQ

[22] = molecular target: CDK11B (human) (UniProt P21127)
[23] = molecular target: PDPK1 (human) (UniProt O15530)
[24] = molecular target: TGFBR2 (human) (UniProt P37173)
[25] = molecular target: MYO3B (human) (UniProt Q8WXR4)
[26] = molecular target: OXSR1 (human) (UniProt O95747)
[27] = molecular target: HIPK3 (human) (UniProt Q9H422)
[28] = molecular target: CHEK2 (human) (UniProt O96017)
[29] = molecular target: TAOK1 (human) (UniProt Q7L7X3)
[30] = molecular target: ERN1 (human) (UniProt O75460)
[31] = molecular target: DYRK2 (human) (UniProt Q92630)
[32] = molecular target: GRK4 (human) (UniProt P32298)
[33] = molecular target: GRK7 (human) (UniProt Q8WTQ7)
[34] = molecular target: MAPK13 (human) (UniProt O15264)
[35] = molecular target: SBK1 (human) (UniProt Q52WX2)

TNIK (human), sequence (Q9UKE5 whole entry, looked up): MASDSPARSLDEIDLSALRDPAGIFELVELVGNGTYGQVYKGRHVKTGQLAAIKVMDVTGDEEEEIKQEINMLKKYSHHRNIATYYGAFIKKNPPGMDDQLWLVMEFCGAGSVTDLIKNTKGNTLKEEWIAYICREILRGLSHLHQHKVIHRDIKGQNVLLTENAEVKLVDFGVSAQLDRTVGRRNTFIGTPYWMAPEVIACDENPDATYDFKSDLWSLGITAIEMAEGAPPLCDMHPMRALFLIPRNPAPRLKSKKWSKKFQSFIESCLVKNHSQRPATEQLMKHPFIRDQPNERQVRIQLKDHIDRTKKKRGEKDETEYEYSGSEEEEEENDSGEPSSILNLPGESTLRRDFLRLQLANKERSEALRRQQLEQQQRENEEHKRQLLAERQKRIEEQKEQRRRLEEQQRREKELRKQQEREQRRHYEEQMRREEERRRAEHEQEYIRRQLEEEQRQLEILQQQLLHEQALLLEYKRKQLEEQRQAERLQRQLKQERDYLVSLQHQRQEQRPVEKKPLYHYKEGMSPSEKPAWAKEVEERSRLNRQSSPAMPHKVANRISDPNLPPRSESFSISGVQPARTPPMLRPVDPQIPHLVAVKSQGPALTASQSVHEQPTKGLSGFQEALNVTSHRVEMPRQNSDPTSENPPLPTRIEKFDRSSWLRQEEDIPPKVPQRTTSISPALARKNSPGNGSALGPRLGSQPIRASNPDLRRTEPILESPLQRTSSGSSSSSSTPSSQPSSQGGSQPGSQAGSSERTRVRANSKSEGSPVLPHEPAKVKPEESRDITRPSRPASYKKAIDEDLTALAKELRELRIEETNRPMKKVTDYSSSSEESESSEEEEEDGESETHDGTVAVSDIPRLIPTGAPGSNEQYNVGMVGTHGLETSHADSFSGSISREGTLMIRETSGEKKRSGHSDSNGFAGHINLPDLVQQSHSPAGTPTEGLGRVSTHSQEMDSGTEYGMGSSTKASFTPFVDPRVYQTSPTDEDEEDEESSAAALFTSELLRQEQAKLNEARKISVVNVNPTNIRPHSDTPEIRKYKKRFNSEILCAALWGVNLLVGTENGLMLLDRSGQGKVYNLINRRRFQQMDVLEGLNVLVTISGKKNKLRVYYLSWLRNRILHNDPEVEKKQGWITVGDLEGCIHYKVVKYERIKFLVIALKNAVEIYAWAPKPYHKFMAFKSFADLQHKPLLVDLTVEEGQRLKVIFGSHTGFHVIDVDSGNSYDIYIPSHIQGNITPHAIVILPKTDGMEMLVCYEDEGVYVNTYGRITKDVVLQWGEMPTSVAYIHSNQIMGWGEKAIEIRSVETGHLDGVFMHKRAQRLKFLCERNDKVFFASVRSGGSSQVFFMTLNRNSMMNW

| Structure (SMILES) | kinase still bound, per cent of control [1] [%] | kinase still bound, per cent of control [2] [%] | kinase still bound, per cent of control [3] [%] | kinase still bound, per cent of control [4] [%] | kinase still bound, per cent of control [5] [%] | kinase still bound, per cent of control [6] [%] | kinase still bound, per cent of control [7] [%] | kinase still bound, per cent of control [8] [%] | kinase still bound, per cent of control [9] [%] | kinase still bound, per cent of control [10] [%] | kinase still bound, per cent of control [11] [%] | kinase still bound, per cent of control [12] [%] | kinase still bound, per cent of control [13] [%] | kinase still bound, per cent of control [14] [%] | kinase still bound, per cent of control [15] [%] | kinase still bound, per cent of control [16] [%] | kinase still bound, per cent of control [17] [%] | kinase still bound, per cent of control [18] [%] | kinase still bound, per cent of control [19] [%] | kinase still bound, per cent of control [20] [%] | further results |
| --- | --- | --- | --- | --- | --- | --- | --- | --- | --- | --- | --- | --- | --- | --- | --- | --- | --- | --- | --- | --- | --- |
| COc1ccc(N(C(=O)Oc2cc(C(=O)Nc3cccc(C(F)(F)F)c3)ccc2C)c2ccnc(Nc3ccc(N4CCN(C)CC4)cc3)n2)c(OC)c1 | 12 | 1.6 | 100 | 100 | 100 | 100 | 100 | 100 | 0.2 | 100 | 4 | 3.4 | 0.7 | 100 | 100 | 100 | 2.4 | 0.15 | 100 | 100 | kinase still bound, per cent of control [21]: 100%; kinase still bound, per cent of control [22]: 8.3%; kinase still bound, per cent of control [23]: 100%; kinase still bound, per cent of control [24]: 100%; kinase still bound, per cent of control [25]: 100% |
| CCOc1cc(N2CCC(O)CC2)ccc1Nc1ncc2c(n1)N(C)c1ccccc1C(=O)N2C | 100 | 100 | 100 | 100 | 100 | 100 | 100 | 100 | 100 | 100 | 100 | 100 | 100 | 0.9 | 100 | 100 | 100 | 100 | 100 | 100 | kinase still bound, per cent of control [26]: 100%; kinase still bound, per cent of control [27]: 100%; kinase still bound, per cent of control [28]: 100%; kinase still bound, per cent of control [29]: 100%; kinase still bound, per cent of control [30]: 100%; kinase still bound, per cent of control [31]: 100%; kinase still bound, per cent of control [32]: 100%; kinase still bound, per cent of control [33]: 100%; kinase still bound, per cent of control [21]: 100%; kinase still bound, per cent of control [22]: 100%; kinase still bound, per cent of control [23]: 100%; kinase still bound, per cent of control [24]: 100%; kinase still bound, per cent of control [25]: 100%; kinase still bound, per cent of control [34]: 100%; kinase still bound, per cent of control [35]: 100% |
| Cc1cn(-c2cc(C(=O)Nc3ccc(C)c(NC(=O)c4ccno4)c3)cc(C(F)(F)F)c2)cn1 | 100 | 100 | 100 | 100 | 100 | 100 | 100 | 100 | 1.4 | 100 | 24 | 100 | 31 | 100 | 100 | 100 | 100 | 100 | 100 | 100 | kinase still bound, per cent of control [26]: 100%; kinase still bound, per cent of control [27]: 100%; kinase still bound, per cent of control [28]: 100%; kinase still bound, per cent of control [29]: 100%; kinase still bound, per cent of control [30]: 100%; kinase still bound, per cent of control [31]: 100%; kinase still bound, per cent of control [32]: 100%; kinase still bound, per cent of control [33]: 100%; kinase still bound, per cent of control [21]: 100%; kinase still bound, per cent of control [22]: 100%; kinase still bound, per cent of control [23]: 100%; kinase still bound, per cent of control [24]: 100%; kinase still bound, per cent of control [25]: 100%; kinase still bound, per cent of control [34]: 100%; kinase still bound, per cent of control [35]: 100% |
| COc1cc(N2CCC(C(N)=O)CC2)ccc1Nc1nc(N)c(Cl)c(Nc2ccccc2S(=O)(=O)C(C)C)n1 | 100 | 100 | 100 | 100 | 100 | 100 | 6.5 | 4.6 | 24 | 100 | 3 | 100 | 100 | 18 | 100 | 100 | 0.3 | 2.6 | 8.3 | 100 | kinase still bound, per cent of control [28]: 14%; kinase still bound, per cent of control [29]: 100%; kinase still bound, per cent of control [21]: 100%; kinase still bound, per cent of control [22]: 100%; kinase still bound, per cent of control [23]: 100%; kinase still bound, per cent of control [24]: 100%; kinase still bound, per cent of control [25]: 24%; kinase still bound, per cent of control [34]: 100% |
| COc1cc(C)c(Sc2cnc(NC(=O)c3ccc(CNC(C)C(C)C)cc3)s2)cc1C(=O)N1CCN(C(C)=O)CC1 (stereo unspecified) | 100 | 100 | 100 | 100 | 100 | 100 | 24 | 3.7 | 100 | 100 | 100 | 100 | 100 | 31 | 100 | 100 | 100 | 31 | 19 | 7 | kinase still bound, per cent of control [28]: 100%; kinase still bound, per cent of control [29]: 16%; kinase still bound, per cent of control [21]: 100%; kinase still bound, per cent of control [22]: 100%; kinase still bound, per cent of control [23]: 100%; kinase still bound, per cent of control [24]: 100%; kinase still bound, per cent of control [25]: 100%; kinase still bound, per cent of control [34]: 100% |
